Assay results published in the supplement of paper PMC11061612.

Columns and labels:
[1] = tested on: ACHN (Kidney Carcinoma); assay: Bliss excess, mean over the matrix (fraction); higher = more synergy
Procedure, shortened: (§1)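 Cell lines in DMEM/F12 or RPMI with 10% FBS were plated in 1536-well plates, held 24 hours at 37°C, 5% CO2, then given two-drug dose matrices for 72 hours (DMSO typically 0.2%). Viability was read by CellTiter-Glo 2.0 luminescence and scaled as inhibition from 0 (vehicle wells) to 1 (blank wells). Combination Emax is the second-highest inhibition in the matrix; Bliss excess is observed combination effect minus expected EA + EB − EA·EB, EA and EB being single-agent effects.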

[2] = tested on: Ca9-22 (Head and Neck Carcinoma); assay: as above
Procedure, shortened: as §1

[3] = tested on: Caov-4 (Ovarian Carcinoma); assay: as above
Procedure, shortened: as §1

[4] = tested on: EoL-1-cell (Acute Myeloid Leukemia); assay: as above
Procedure, shortened: as §1

[5] = tested on: MIA-PaCa-2 (Pancreatic Carcinoma); assay: as above
Procedure, shortened: as §1

[6] = tested on: NB69 (Neuroblastoma); assay: as above
Procedure, shortened: as §1

[7] = tested on: NCI-H358 (Lung Adenocarcinoma); assay: as above
Procedure, shortened: as §1

[8] = tested on: PANC-04-03 (Pancreatic Carcinoma); assay: as above
Procedure, shortened: as §1

[9] = tested on: TK10 (Kidney Carcinoma); assay: as above
Procedure, shortened: as §1

[10] = tested on: YH-13 (Glioblastoma); assay: as above
Procedure, shortened: as §1

[11] = tested on: SW13 (Other Solid Carcinomas); assay: combination Emax (second highest fraction inhibited in the dose matrix, 72 h); higher = more inhibition; extreme values may be limits of the assay
Procedure, shortened: as §1
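Wherever Bliss excess, mean over the matrix is given: after 72 h of two-drug dosing.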

| Compound | Bliss excess [1] | Bliss excess [2] | Bliss excess [3] | Bliss excess [4] | Bliss excess [5] | Bliss excess [6] | Bliss excess [7] | Bliss excess [8] | Bliss excess [9] | Bliss excess [10] | combination Emax [11] |
| --- | --- | --- | --- | --- | --- | --- | --- | --- | --- | --- | --- |
| C=CCn1c(=O)c2cnc(Nc3ccc(N4CCN(C)CC4)cc3)nc2n1-c1cccc(C(C)(C)O)n1 [AZD1775] + CCc1c2c(nc3ccc(O)cc13)-c1cc3c(c(=O)n1C2)COC(=O)[C@]3(O)CC [SN-38] (first compound max 1 µM, partner max 0.3 µM) | -0.0634 | 0.0045 | -0.0557 | 0.0324 | 0.0699 | 0.0239 | -0.0162 | -0.0594 | -0.0717 | -0.0262 | 0.964 |
| C=CCn1c(=O)c2cnc(Nc3ccc(N4CCN(C)CC4)cc3)nc2n1-c1cccc(C(C)(C)O)n1 [AZD1775] + Nc1ccn([C@@H]2O[C@H](CO)[C@@H](O)C2(F)F)c(=O)n1 [Gemcitabine] (first compound max 1 µM, partner max 0.3 µM) | -0.0338 | 0.0821 | 0 | 0.0391 | 0.0459 | 0.0419 | -0.0113 | -0.0346 | -0.0299 | 0.0208 | 0.928 |
| CN(CCO)CC[C@H](CSc1ccccc1)Nc1ccc(S(=O)(=O)NC(=O)c2ccc(N3CCC([C@@H](O)c4ccccc4-c4ccc(Cl)cc4)CC3)cc2)cc1S(=O)(=O)C(F)(F)F [AZD4320] + CS(=O)(=O)CCNCc1ccc(-c2ccc3ncnc(Nc4ccc(OCc5cccc(F)c5)c(Cl)c4)c3c2)o1 [Lapatinib] (first compound max 1 µM, 7x7, partner max 10 µM) | -0.011 | 0.0479 | -0.0144 | 0.05 | 0.0373 | 0.0465 | – | -0.0143 | -0.0942 | 0.0183 | 0.804 |
| Cc1c2c(nn1C)CSCc1cc(n(C)n1)CSc1cc(c3ccccc3c1)OCCCc1c(C(=O)O)n(C)c3c-2c(Cl)ccc13 [AZD5991] + CC(=O)O[C@H]1C(=O)[C@@]2(C)[C@H]([C@H](OC(=O)c3ccccc3)[C@]3(O)C[C@H](OC(=O)[C@H](O)[C@@H](NC(=O)c4ccccc4)c4ccccc4)C(C)=C1C3(C)C)[C@]1(OC(C)=O)CO[C@@H]1C[C@@H]2O [Paclitaxel] (first compound max 1 µM, 7x7, partner max 3 µM) | -0.0038 | 0.0065 | 0.0995 | -0.0041 | – | 0.027 | -0.0405 | 0.0111 | -0.0402 | 0.0246 | 1 |
| Cc1c2c(nn1C)CSCc1cc(n(C)n1)CSc1cc(c3ccccc3c1)OCCCc1c(C(=O)O)n(C)c3c-2c(Cl)ccc13 [AZD5991] + CS(=O)(=O)CCNCc1ccc(-c2ccc3ncnc(Nc4ccc(OCc5cccc(F)c5)c(Cl)c4)c3c2)o1 [Lapatinib] (first compound max 1 µM, 7x7, partner max 10 µM) | 0.0028 | 0.0614 | 0.0835 | – | -0.0094 | 0.021 | -0.0019 | -0.0275 | -0.0567 | – | 0.973 |
| Cc1c2c(nn1C)CSCc1cc(n(C)n1)CSc1cc(c3ccccc3c1)OCCCc1c(C(=O)O)n(C)c3c-2c(Cl)ccc13 [AZD5991] + Nc1ccn([C@@H]2O[C@H](CO)[C@@H](O)C2(F)F)c(=O)n1 [Gemcitabine] (first compound max 1 µM, 7x7, partner max 0.3 µM) | -0.0455 | 0.0042 | -0.0312 | -0.0123 | 0.0137 | 0.0037 | -0.0276 | -0.0643 | -0.0198 | 0.0143 | 0.981 |
| C[C@@H]1COCCN1c1cc(C2([S@](C)(=N)=O)CC2)nc(-c2ccnc3[nH]ccc23)n1 [AZD6738] + C1CC(C1)(C(=O)[O-])C(=O)[O-].N.N.[Pt+2] [Carboplatin] (first compound max 10 µM, 7x7, partner max 10 µM) | -0.034 | -0.0479 | -0.0209 | -0.0132 | -0.0272 | -0.0502 | -0.091 | -0.0682 | -0.0837 | -0.0453 | 0.344 |
| C[C@@H]1COCCN1c1cc(C2([S@](C)(=N)=O)CC2)nc(-c2ccnc3[nH]ccc23)n1 [AZD6738] + Nc1ccn([C@@H]2O[C@H](CO)[C@@H](O)C2(F)F)c(=O)n1 [Gemcitabine] (first compound max 10 µM, 7x7, partner max 0.3 µM) | 0.0003 | 0.0536 | 0.0431 | -0.081 | 0.0999 | 0.0147 | 0.07 | -0.0244 | -0.0417 | 0.0228 | 0.932 |
| C[C@@H](Nc1cc(F)cc(F)c1)c1cc(C(=O)N(C)C)cc2c(=O)cc(N3CCOCC3)oc12 [AZD8186] + C1CN(CCC1(C(=O)N[C@@H](CCO)C2=CC=C(C=C2)Cl)N)C3=NC=NC4=C3C=CN4 [AZD5363] (first compound max 10 µM, 7x7, partner max 10 µM) | 0.04 | -0.0508 | -0.0338 | 0 | 0.0056 | 0.0248 | -0.0597 | -0.0712 | -0.0661 | 0.0106 | 0.251 |
| C[C@@H](Nc1cc(F)cc(F)c1)c1cc(C(=O)N(C)C)cc2c(=O)cc(N3CCOCC3)oc12 [AZD8186] + CC(=O)c1c(C)c2cnc(Nc3ccc(N4CCNCC4)cn3)nc2n(C2CCCC2)c1=O [Palbociclib] (first compound max 10 µM, 7x7, partner max 10 µM) | 0.0335 | 0.021 | 0.0078 | 0.0996 | 0.0485 | -0.0111 | -0.0167 | 0.0107 | -0.0069 | 0.0183 | 0.316 |
| C[C@@H](Oc1cc(-c2cnn(C3CCNCC3)c2)cnc1N)c1c(Cl)ccc(F)c1Cl [Crizotinib] + CC1=C(C(=CC=C1)Cl)NC(=O)C2=CN=C(S2)NC3=CC(=NC(=N3)C)N4CCN(CC4)CCO [Dasatinib] (first compound max 10 µM, 7x7, partner max 2 µM) | 0.0041 | 0.0635 | -0.0441 | 0.0101 | 0.0119 | 0.0051 | -0.0813 | -0.0683 | 0.0333 | 0.107 | 0.736 |
| C[C@@H](Oc1cc(-c2cnn(C3CCNCC3)c2)cnc1N)c1c(Cl)ccc(F)c1Cl [Crizotinib] + Cn1cnc2c(F)c(Nc3ccc(Br)cc3Cl)c(C(=O)NOCCO)cc21 [Selumetinib] (first compound max 10 µM, 7x7, partner max 10 µM) | 0.0277 | -0.0286 | -0.025 | 0.0352 | 0.0058 | -0.0283 | -0.106 | -0.0194 | -0.0705 | -0.0111 | 0.522 |
| CS(=O)(=O)CCNCc1ccc(-c2ccc3ncnc(Nc4ccc(OCc5cccc(F)c5)c(Cl)c4)c3c2)o1 [Lapatinib] + Cn1cnc2c(F)c(Nc3ccc(Br)cc3Cl)c(C(=O)NOCCO)cc21 [Selumetinib] (first compound max 10 µM, 7x7, partner max 10 µM) | 0.0251 | 0.0498 | 0.0493 | -0.038 | 0.0484 | -0.0397 | -0.0044 | 0.0145 | -0.008 | -0.0095 | 0.687 |
| O=C(c1cc(Cc2n[nH]c(=O)c3ccccc23)ccc1F)N1CCN(C(=O)C2CC2)CC1 [Olaparib] + CC1(C)CCC(CN2CCN(c3ccc(C(=O)NS(=O)(=O)c4ccc(NCC5CCOCC5)c([N+](=O)[O-])c4)c(Oc4cnc5[nH]ccc5c4)c3)CC2)=C(c2ccc(Cl)cc2)C1 [Venetoclax] (first compound max 10 µM, 7x7, partner max 1 µM) | -0.0214 | 0.0323 | -0.032 | 0.0698 | -0.0208 | 0.067 | -0.054 | -0.0318 | -0.0727 | -0.0207 | 0.213 |
| O=C(c1cc(Cc2n[nH]c(=O)c3ccccc23)ccc1F)N1CCN(C(=O)C2CC2)CC1 [Olaparib] + CN(CC[C@H](CSC1=CC=CC=C1)NC2=C(C=C(C=C2)S(=O)(=O)NC(=O)C3=CC=C(C=C3)N4CCC(CC4)[C@H](C5=CC=CC=C5C6=CC=C(C=C6)Cl)O)S(=O)(=O)C(F)(F)F)CCO [AZD4320] (first compound max 10 µM, 7x7, partner max 1 µM) | -0.0164 | 0.006 | -0.0392 | 0.0717 | 0.002 | 0.0663 | -0.0383 | -0.0555 | -0.0439 | 0.0012 | 0.184 |
| O=C(c1cc(Cc2n[nH]c(=O)c3ccccc23)ccc1F)N1CCN(C(=O)C2CC2)CC1 [Olaparib] + COc1nnc2ccc(N3CCC(c4ccc(OCCN5CCN(C)C(=O)[C@H]5C)cc4)CC3)nn12 [AZD5153] (first compound max 10 µM, 7x7, partner max 1 µM) | -0.0367 | -0.0495 | -0.0634 | -0.0384 | -0.0233 | 0.0035 | -0.026 | -0.0698 | -0.0301 | -0.0114 | 0.309 |
| O=C(c1cc(Cc2n[nH]c(=O)c3ccccc23)ccc1F)N1CCN(C(=O)C2CC2)CC1 [Olaparib] + Cc1c2c(nn1C)CSCc1cc(n(C)n1)CSc1cc(c3ccccc3c1)OCCCc1c(C(=O)O)n(C)c3c-2c(Cl)ccc13 [AZD5991] (first compound max 10 µM, 7x7, partner max 1 µM) | -0.0218 | 0.0247 | -0.0215 | 0.0236 | -0.0205 | -0.0042 | -0.0513 | -0.0554 | -0.0699 | -0.0298 | 0.763 |
| Cc1nc(-c2cn3c(n2)-c2ccc(-c4cnn(C(C)(C)C(N)=O)c4)cc2OCC3)n(C(C)C)n1 [Taselisib] + O=C(Nc1ccc2[nH]nc(-c3ccncc3)c2c1)[C@@H]1CCN(CC(=O)N2CCN(c3ccc(-c4ncccn4)cc3)CC2)C1 [SCH772984] (first compound max 10 µM, 7x7, partner max 5 µM) | 0.0219 | 0.116 | 0.0269 | 0.191 | 0.149 | -0.0509 | 0.0402 | 0.0934 | -0.008 | -0.0586 | 0.894 |
| CC1(C)CCC(CN2CCN(c3ccc(C(=O)NS(=O)(=O)c4ccc(NCC5CCOCC5)c([N+](=O)[O-])c4)c(Oc4cnc5[nH]ccc5c4)c3)CC2)=C(c2ccc(Cl)cc2)C1 [Venetoclax] + CS(=O)(=O)CCNCc1ccc(-c2ccc3ncnc(Nc4ccc(OCc5cccc(F)c5)c(Cl)c4)c3c2)o1 [Lapatinib] (first compound max 1 µM, 7x7, partner max 10 µM) | -0.0198 | 0.0232 | -0.0353 | 0.0351 | 0.0099 | 0.0877 | -0.0321 | -0.0396 | -0.0141 | -0.04 | 0.549 |
